Results published in patent US20260365641A1, “Aromatic Acetylene Derivative, Preparation Method Therefor, And Use Thereof” (Zhejiang Hisun Pharmaceutical Co., Ltd., priority 2022, published 2026).
pIC50: −log10 of the molar value. In brackets after ≈: the same amount, converted by molar mass.

Key:
E. coli ATCC 25922 = experiment: Antibacterial activity, minimum inhibitory concentration (MIC) in vitro, broth dilution; type: cell-based; details: Escherichia coli, ATCC25922, 5×10^5 cfu/mL, 35 °C, 18-24 hours
Outline: (§1)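 Broth microdilution per CLSI in CAMHB, inoculum 5×10^5 cfu/mL. Compound added from 100× DMSO working stocks across 11 two-fold dilutions, final 64 to 0.06 μg/mL. Incubated 18-24 h at 35 °C.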

K. pneumoniae ATCC13883 = experiment: as above; type: cell-based; details: Klebsiella pneumoniae, 5×10^5 cfu/mL, 35 °C, 18-24 hours
Outline: as §1

K. pneumoniae ATCC51504 = experiment: as above; type: cell-based; details: Klebsiella pneumoniae, 5×10^5 cfu/mL, 35 °C, 18-24 hours
Outline: as §1

[1] = target: T1, recombinant Pseudomonas aeruginosa LpxC (Pseudomonas aeruginosa, UniProt P47205); experiment: Inhibition of enzymatic activity of recombinant Pseudomonas aeruginosa LpxC in vitro; type: biochemical; details: 5 nM LpxC; substrate UDP-3-O—(R-3-hydroxydecanoyl)-GlcNAc; 25 °C, 120 minutes; fluorescamine readout
T1 construct: purchased Signalway Antibody AP74647-2
T1 sequence (P47205 1-303): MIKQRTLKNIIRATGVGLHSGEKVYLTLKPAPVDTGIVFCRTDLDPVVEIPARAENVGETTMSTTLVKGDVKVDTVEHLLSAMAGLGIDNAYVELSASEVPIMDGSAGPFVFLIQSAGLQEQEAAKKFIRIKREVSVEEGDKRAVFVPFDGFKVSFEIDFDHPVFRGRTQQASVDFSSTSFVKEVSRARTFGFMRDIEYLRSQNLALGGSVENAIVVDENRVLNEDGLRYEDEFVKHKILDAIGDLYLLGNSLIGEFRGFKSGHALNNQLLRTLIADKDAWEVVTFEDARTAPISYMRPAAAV
Outline: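 LpxC (5 nM final) was incubated with compound (8-point 4-fold series, 0.61–10000 nM) and […] UDP-3-O-(R-3-hydroxydecanoyl)-GlcNAc for 120 min at 25 °C. Product was detected with fluorescamine (Ex 390/Em 495 nm) after a pH 8.0 phosphate stop. IC50 was fitted by nonlinear regression against 0.1% DMSO control.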

| SMILES | MIC (E. coli ATCC 25922) | MIC (K. pneumoniae ATCC13883) | MIC (K. pneumoniae ATCC51504) | pIC50 [1] |
| --- | --- | --- | --- | --- |
| C[C@H](O)c1nccn1Cc1cc(-c2ccc(C#CC3CC4(C3)CN(CCn3cncn3)C4)cc2)on1 [Example 53, (S)-1-(1-((5-(4-((2-(2-(1H-1,2,4-triazol-1-yl)ethyl)-2-azaspiro[3.3]heptan-6-yl)ethynyl)phenyl)isoxazol-3-yl)methyl)-1H-imidazol-2-yl)ethan-1-ol] | 2 µg/mL (≈ 4.14 µM) | 8 µg/mL (≈ 16.5 µM) | 2 µg/mL (≈ 4.14 µM) |  |
| C[C@H](O)c1nccn1Cc1cc(-c2ccc(C#CC3CC4(C3)CN(Cc3ncco3)C4)cc2)on1 [Example 52, (S)-1-(1-((5-(4-((2-(oxazol-2-ylmethyl)-2-azaspiro[3.3]heptan-6-yl)ethynyl)phenyl)isoxazol-3-yl)methyl)-1H-imidazol-2-yl)ethan-1-ol] | 1 µg/mL (≈ 2.13 µM) | 2 µg/mL (≈ 4.26 µM) | 1 µg/mL (≈ 2.13 µM) | 7.86 |
| C[C@H](O)c1nccn1Cc1cc(-c2ccc(C#CC3CC4(CCN(C=O)CC4)C3)cc2)on1 [Example 17, (S)-2-((4-(3-((2-(1-hydroxyethyl)-1H-imidazol-1-yl)methyl)isoxazol-5-yl)phenyl)ethynyl)-7-azaspiro[3.5]nonane-7-carbaldehyde] | 1 µg/mL (≈ 2.25 µM) | 2 µg/mL (≈ 4.5 µM) |  | 8.08 |
| C[C@H](O)c1nccn1Cc1cc(-c2ccc(C#CC3CC4(CCN(CC(N)=O)CC4)C3)cc2)on1 [Example 13, (S)-2-(2-((4-(3-((2-(1-hydroxyethyl)-1H-imidazol-1-yl)methyl)isoxazol-5-yl)phenyl)ethynyl)-7-azaspiro[3.5]nonan-7-yl)acetamide] | 1 µg/mL (≈ 2.11 µM) | 1 µg/mL (≈ 2.11 µM) |  | 8.30 |
| C[C@H](O)c1nccn1Cc1cc(-c2ccc(C#CC3CC4(CCN(Cc5ncc[nH]5)CC4)C3)cc2)on1 [Example 27, (S)-1-(1-((5-(4-((7-((1H-imidazol-2-yl)methyl)-7-azaspiro[3.5]nonan-2-yl)ethynyl)phenyl)isoxazol-3-yl)methyl)-1H-imidazol-2-yl)ethan-1-ol] | 2 µg/mL (≈ 4.03 µM) | 4 µg/mL (≈ 8.05 µM) |  | 8.22 |
| C[C@H](O)c1nccn1Cc1cc(-c2ccc(C#CC3CC4(C3)CN(CC(N)=O)C4)cc2)on1 [Example 20, (S)-2-(6-((4-(3-((2-(1-hydroxyethyl)-1H-imidazol-1-yl)methyl)isoxazol-5-yl)phenyl)ethynyl)-2-azaspiro[3.3]heptan-2-yl)acetamide] | 2 µg/mL (≈ 4.49 µM) | 4 µg/mL (≈ 8.98 µM) |  | 8.17 |
